In brackets after ≈: the same amount, converted by molar mass. Like-named read-outs stand apart in the source and are kept apart here.
What was measured:
Pasteurella multocida = assay: Protection of one-day-old chicks against Pasteurella multocida infection (Table IX); format: in vivo; conditions: subcutaneous 30 mg/kg × 2, 1 and 4 hours post-challenge
In short: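 One-day-old chicks were challenged subcutaneously with 0.1 ml of a twenty-hour tryptose broth culture of avian P. multocida. Compound was given subcutaneously at 30 mg/kg, 1 and 4 hours post-challenge, and protection against death was followed, with non-medicated infected chicks as controls.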

[1] = tested on: Streptococcus pneumoniae Park I; assay: microbe, parasite or virus in culture; format: cell-based; conditions: Streptococcus pneumoniae, read-out: MIC
Procedure: (§1) Especially noteworthy is the improved activity against gram-negative bacteria for several derivatives when compared to the activity of OMT. […] The MIC's in Tables V and VI were determined by standard agar-dilution assays. The MIC's in Table VII were obtained using a conventional broth-dilution microtiter test.

Staphylococcus aureus = assay: MIC, broth-dilution microtiter test (Table VII); format: cell-based; conditions: Staphylococcus aureus
In short: (§2)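 Growth inhibition in liquid medium, in a routine microtiter broth-dilution series, gave the MIC against staphylococci and pasteurellae; the gram-negative enteric strain was tested by conventional agar dilution instead.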

[2] = tested on: Pasteurella multocida 17E; assay: MIC, broth-dilution microtiter test (Table VII); format: cell-based; conditions: Pasteurella multocida; P. multocida 17E, bovine isolate; broth-dilution microtiter; read-out: MIC
In short: as §2

Streptococcus sp. 80 = assay: MIC, broth-dilution microtiter test (Table VII); format: cell-based
Procedure: as §1

[3] = tested on: Pasteurella multocida 68C; assay: MIC, broth-dilution microtiter test (Table VII); format: cell-based; conditions: Pasteurella multocida; P. multocida 68C; broth-dilution microtiter; read-out: MIC
In short: as §2

[4] = tested on: Pasteurella multocida 40G; assay: MIC, broth-dilution microtiter test (Table VII); format: cell-based; conditions: Pasteurella multocida
In short: as §2

[5] = tested on: Pasteurella hemolytica 22C; assay: MIC, broth-dilution microtiter test (Table VII); format: cell-based; conditions: Pasteurella, P. hemolytica 22C, read-out: MIC
In short: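 Each MIC derives from a dilution series, either on solid agar (Enterobacter aerogenes) or in liquid broth within microtiter plates (staphylococcal and Pasteurella strains).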

[6] = tested on: Pasteurella multocida 60A; assay: MIC, broth-dilution microtiter test (Table VII); format: cell-based; conditions: Pasteurella multocida; P. multocida 60A, avian isolate; broth-dilution microtiter; read-out: MIC
In short: as §2

Mycoplasma gallisepticum = assay: MIC, broth-dilution microtiter test (Table VII); format: cell-based; conditions: Mycoplasmoides gallisepticum
Procedure: as §1

[7] = tested on: Pasteurella multocida 22A; assay: MIC, broth-dilution microtiter test (Table VII); format: cell-based; conditions: Pasteurella multocida
In short: as §2

Escherichia coli TEM = assay: MIC, standard agar-dilution assay (Table V); format: cell-based; conditions: Escherichia coli
Procedure: The MIC's in Tables V and VI were determined by standard agar-dilution assays. The MIC's in Table VII were obtained using a conventional broth-dilution microtiter test.

[8] = S. aureus, broth-dilution microtiter, read-out: MIC
[9] = Streptococcus sp. 80, broth-dilution microtiter, read-out: MIC
[10] = P. multocida 40G, broth-dilution microtiter, read-out: MIC
[11] = M. gallisepticum, broth-dilution microtiter, read-out: MIC
[12] = P. multocida 22A, broth-dilution microtiter, read-out: MIC
[13] = E. coli TEM, agar dilution, read-out: MIC

| SMILES | Number of deaths/number treated (Pasteurella multocida) | MIC [1] | MIC (Staphylococcus aureus; [8]) | MIC [2] | MIC (Streptococcus sp. 80; [9]) | MIC [3] | MIC [4, 10] | MIC [5] | MIC [6] | MIC (Mycoplasma gallisepticum; [11]) | MIC [7, 12] | MIC (Escherichia coli TEM) | MIC ([4]; 40G) | MIC (Escherichia coli TEM; [13]) | MIC ([7]; 22A) | MIC (Staphylococcus aureus) | MIC (Streptococcus sp. 80; Streptococcus, SP.80) | MIC (Mycoplasma gallisepticum) | MIC ([1]; S. pneumoniae Park I, agar dilution) |
| --- | --- | --- | --- | --- | --- | --- | --- | --- | --- | --- | --- | --- | --- | --- | --- | --- | --- | --- | --- |
| CCC1OC(=O)CC(O)C(C)C(OC2OC(C)C(O)C(N(C)C)C2O)C(CC=O)CC(C)C(=O)C=CC(C)=CC1CSC(C)=O (stereo not shown) [Compound 7, 23-Deoxy-23-(acetyl)thio-OMT] | 10/10 | 0.06 µg/mL (≈ 0.0915 µM) | 0.39 µg/mL (≈ 0.595 µM) | 3.12 µg/mL (≈ 4.76 µM) | 0.39 µg/mL (≈ 0.595 µM) | 1.56 µg/mL (≈ 2.38 µM) | 0.78 µg/mL (≈ 1.19 µM) | 6.25 µg/mL (≈ 9.53 µM) | 3.12 µg/mL (≈ 4.76 µM) | 0.19 µg/mL (≈ 0.29 µM) | 1.56 µg/mL (≈ 2.38 µM) |  |  |  |  |  |  |  |  |
| CCC1OC(=O)CC(O)C(C)C(OC2OC(C)C(O)C(N(C)C)C2O)C(CC=O)CC(C)C(=O)C=CC(C)=CC1CSc1ccccc1 (stereo not shown) [Compound 2, 23-Deoxy-23-(phenyl)thio-OMT] | 10/10 | 0.06 µg/mL (≈ 0.087 µM) | 0.39 µg/mL (≈ 0.565 µM) | 1.56 µg/mL (≈ 2.26 µM) | 0.09 µg/mL (≈ 0.13 µM) | 1.56 µg/mL (≈ 2.26 µM) |  | 3.12 µg/mL (≈ 4.52 µM) | 1.56 µg/mL (≈ 2.26 µM) | 0.09 µg/mL (≈ 0.13 µM) | 1.56 µg/mL (≈ 2.26 µM) | 8 µg/mL (≈ 11.6 µM) | 0.78 µg/mL (≈ 1.13 µM) |  |  |  |  |  |  |
| CCC1OC(=O)CC(O)C(C)C(OC2OC(C)C(O)C(N(C)C)C2O)C(CC=O)CC(C)C(=O)C=CC(C)=CC1CSc1nnc(C)s1 (stereo not shown) [Compound 3, 23-Deoxy-23-(5-methyl-1,3,4-thiadiazol-2-yl)thio-OMT] | 10/10 | 0.06 µg/mL (≈ 0.0843 µM) | 0.78 µg/mL (≈ 1.1 µM) | 6.25 µg/mL (≈ 8.78 µM) | 0.39 µg/mL (≈ 0.548 µM) | 6.25 µg/mL (≈ 8.78 µM) | 1.56 µg/mL (≈ 2.19 µM) | 12.5 µg/mL (≈ 17.6 µM) | 6.25 µg/mL (≈ 8.78 µM) | 0.19 µg/mL (≈ 0.267 µM) |  |  |  | 32 µg/mL (≈ 44.9 µM) | 3.12 µg/mL (≈ 4.38 µM) |  |  |  |  |
| CCC1OC(=O)CC(O)C(C)C(OC2OC(C)C(O)C(N(C)C)C2O)C(CC=O)CC(C)C(=O)C=CC(C)=CC1CSc1nnnn1C (stereo not shown) [Compound 5, 23-Deoxy-23-(1-methyltetrazol-5-yl)thio-OMT] | 3/10 | 0.06 µg/mL (≈ 0.0862 µM) |  | 6.25 µg/mL (≈ 8.98 µM) |  | 6.25 µg/mL (≈ 8.98 µM) | 3.12 µg/mL (≈ 4.48 µM) | 12.5 µg/mL (≈ 18 µM) | 6.25 µg/mL (≈ 8.98 µM) |  | 6.25 µg/mL (≈ 8.98 µM) |  |  | 32 µg/mL (≈ 46 µM) |  | 1.56 µg/mL (≈ 2.24 µM) | 1.56 µg/mL (≈ 2.24 µM) | 1.56 µg/mL (≈ 2.24 µM) |  |
| CCC1OC(=O)CC(O)C(C)C(OC2OC(C)C(O)C(N(C)C)C2O)C(CC=O)CC(C)C(=O)C=CC(C)=CC1CF (stereo not shown) [Compound 15, 23-Deoxy-23-fluoro-OMT] |  |  | 1.56 µg/mL (≈ 2.6 µM) | 3.12 µg/mL (≈ 5.2 µM) | ≤ 0.78 µg/mL | 3.12 µg/mL (≈ 5.2 µM) | 1.56 µg/mL (≈ 2.6 µM) | 3.12 µg/mL (≈ 5.2 µM) | 3.12 µg/mL (≈ 5.2 µM) | 0.09 µg/mL (≈ 0.15 µM) | 3.12 µg/mL (≈ 5.2 µM) | 8 µg/mL (≈ 13.3 µM) |  |  |  |  |  |  | 0.125 µg/mL (≈ 0.208 µM) |
| CCC1OC(=O)CC(O)C(C)C(OC2OC(C)C(O)C(N(C)C)C2O)C(CC=O)CC(C)C(=O)C=CC(C)=CC1CN=[N+]=[N-] (stereo not shown) [Compound 8, 23-Deoxy-23-azido-OMT] | 10/10 | 0.06 µg/mL (≈ 0.0963 µM) | ≤ 0.78 µg/mL | 1.56 µg/mL (≈ 2.5 µM) | ≤ 0.78 µg/mL | 1.56 µg/mL (≈ 2.5 µM) | 1.56 µg/mL (≈ 2.5 µM) | 6.25 µg/mL (≈ 10 µM) | 3.12 µg/mL (≈ 5.01 µM) | 0.39 µg/mL (≈ 0.626 µM) | 1.56 µg/mL (≈ 2.5 µM) | 16 µg/mL (≈ 25.7 µM) |  |  |  |  |  |  |  |

Source: US4459290A, “C-23-Modified derivatives of OMT, pharmaceutical compositions and method of use” (priority 1982, dated 1984)
